Read-outs that look alike come from different tables or passages of the source. Bounds are passed on as bounds.

Results on 16 compounds are retold here after patent US12049474B2, “Nucleoside prodrugs and uses related thereto” (Emory University, priority 2019, dated 2024).

The nature of series [1]: Metabolic stability assay in human liver microsomes (HLM). Type of series: in vitro ADME. To be noted: NADPH, sampled 0-120 min; for half-life at 3 µM: pH 7.4, 3 μM test compound, read-out: HLM t1/2. Here is the method:
The LC-MS/MS analysis was performed using Agilent 1260 Infinity II HPLC, coupled with an Agilent G6460 triple quadrupole mass spectrometer (Agilent Technologies, USA). All the data were acquired employing Agilent 6460 Quantitative Analysis data processing software.
Reverse-phase HPLC separation for each compound was achieved either on an Agilent Porshell 120 EC-C8 column (2.1×50 mm, 2.7 μm), or on an Agilent Zorbax XDB C18 column (2.1×50 mm, 3.5 μm) with a mobile phase composed of methanol-water-formic acid or acetonitrile-water-formic acid (0.1%) at a flow rate of 0.5 mL/min (changes for some compounds). Each method was developed in the presence of an internal standard (ISTD) d5-7-ethoxy coumarin. The column temperature was maintained at 40° C. for most of the samples otherwise noted. The detection was operated in the Agilent JetStream electrospray positive ionization using multiple reaction monitoring mode (MRM).
Other MS conditions were as follows: dwell time 100 ms; gas flow 10 L/min; nebulizer pressure 45 psi; delta EMV 200 V; fragmentor voltage and collision energy for individual compounds vary.
Test compounds were dissolved in 100% DMSO or 100% MeOH to make 10 mM stock solutions. Verapamil (Sigma Aldrich) aided as a positive control and was dissolved in 100% DMSO to make 10 mM stock solutions. The 10 mM stock solution of test and control compounds were further diluted in potassium phosphate buffer (100 mM, pH 7.4) to 500 μM to ensure the organic solvent content was <0.2%. Human liver microsomes (HLMs) were purchased from Xenotech at 20 mg/mL. NADPH (Sigma Aldrich) 10 mM stocks were prepared in deionized water.
The HLM assay was prepared in a 1.5 mL Eppendorf tube with a final volume of 1100 μL for duplicate runs. Each reaction contained phosphate buffer (928.4 μL), liver microsomes (55 μL), and test compound resulting in a final concentration of 3 μM (6.6 μL of 500 μM). The reaction was initiated with 110 μL of 10 mM NADPH. Aliquots (100 μL) were removed in duplicate at 0, 15, 30, 60, 120 min (for prodrug compounds) and 0, 5, 10, 15, 30 min (verapamil, positive control compound) time intervals and quenched in cold […] of 100% methanol which contained internal standard (ISTD: d5-7-ethoxy coumarin 4 μM). Before centrifugation each of the aliquoted tubes were vortexed to make sure compounds were in the solution. The aliquots were centrifuged at 12,000 g for 5 min and the supernatant removed and placed in an LC-MS vial. Each time point was assessed using LC-MS and the area, based on the extracted ion, was integrated with respect to the ISTD. Positive controls were conducted at a final volume of 550 μL to give each time point in a single run. A no-NADPH negative control with test or control compound was performed in a single run (150 μL) at the longest time point. Controls were processed and analyzed like the test compounds. Each time point was run in duplicates followed by in-between blank washes to avoid the carryover and to equilibrate the column.

A further series deals with CYP2D6 (Homo sapiens (Human), UniProt P10635). The series is described as follows: biochemical. It counts as biochemical. How it is done:
(§1) The CYP450 inhibition assays utilized microsomes from insect cells expressing human recombinant individual cDNA-expressed CYP isoforms 3A4 and 2D6, as well as the fluorogenic probe that produces fluorescent metabolite. Standard inhibitors were co-incubated with fluorogenic substrates and their inhibitory potential (IC50) was determined. Assay conditions in terms of CYP450 protein concentration and time of incubation were standardized, enzyme kinetics parameters of each fluorescent probe substrate were estimated and IC50 values of inhibitors were determined and validated on different days to check reproducibility.
(§2) A 100 mM sodium phosphate buffer was prepared and adjusted to pH 7.4. In a separate falcon tube, a 2× enzyme/substrate (E/S) solution was prepared in phosphate buffer. The final concentration of CYP2D6 (CORNING®) and […] (AMMC) was 10 nM and 4 μM, and CYP3A4 (CORNING®) and 7-benzyloxy-4-(trifluoromethyl) coumarin (BFC) was 20 nM and 40 μM, respectively. In a separate falcon tube, a 2×NADPH regenerating system (NRS) was prepared in phosphate buffer. The final concentration for each component in the assay was as follows: • CYP2D6 assay: 0.008 mM NADPH, 3.3 mM glucose 6-phosphate, 0.4 U of glucose-6-phosphate dehydrogenase per mL
(§3) Both enzymatic assays were conducted in a 96-well microtiter plate (Black, CORNING® COSTAR®) with a final volume of 100 μL. Preparation of the plate began with the addition of 74 μL of the E/S in the first well, and 50 μL to all subsequent wells (from 2-11). The test compounds (1 μL) were dissolved in the first well to give the first row a final volume of 75 μL. A 1:3 serial dilution of the test compound was conducted by removing 25 μL from the first well and diluting it with the second and so forth until the tenth row. Final concentrations yielded a range from 200 μM-0.01 μM. Well no. 11 contained no inhibitor, and well no. 12 contained no enzyme. Both were used as controls for background fluorescence. The plate was incubated for 30 min at 37° C. After incubation, the reaction was initiated by the addition of 50 μL of the 2×NRS to each well.
Immediately (within 1 min) the fluorescence was measured using a microplate reader (BIOTEK® Synergy Neo2). CYP2D6 was monitored at Ex/Em=410/460 nm, and CYP3A4 monitored at Ex/Em=410/538 nm in kinetic mode that scanned every 5 min for 60 mins. Data was exported and analyzed using Graph Pad Prism 7. […] The IC50 value was derived after the data was fitted on a 10-point curve using a four-parameter logistic regression model.

Another series concerns the target CYP3A4 (Homo sapiens (Human), UniProt P08684). As to the kind of experiment: Fluorometric CYP450 enzyme inhibition assay, CYP3A4. Type of series: biochemical. How it is done:
as §1, §2
as §3, with “The test compounds (1 μL) were dissolved in the first well to give the first row a final volume of 75 μL.” left out
Immediately (within 1 min) the fluorescence was measured using a microplate reader (BIOTEK® Synergy Neo2). […] Data was exported and analyzed using Graph Pad Prism 7. […] The IC50 value was derived after the data was fitted on a 10-point curve using a four-parameter logistic regression model.

Setting [2] is: human recombinant CYP2D6, AMMC substrate, read-out: CYP450 IC50 2D6.
Setting [3] is: human recombinant CYP3A4, BFC substrate, read-out: CYP450 IC50 3A4.

CYP3A4, sequence (P08684 whole entry): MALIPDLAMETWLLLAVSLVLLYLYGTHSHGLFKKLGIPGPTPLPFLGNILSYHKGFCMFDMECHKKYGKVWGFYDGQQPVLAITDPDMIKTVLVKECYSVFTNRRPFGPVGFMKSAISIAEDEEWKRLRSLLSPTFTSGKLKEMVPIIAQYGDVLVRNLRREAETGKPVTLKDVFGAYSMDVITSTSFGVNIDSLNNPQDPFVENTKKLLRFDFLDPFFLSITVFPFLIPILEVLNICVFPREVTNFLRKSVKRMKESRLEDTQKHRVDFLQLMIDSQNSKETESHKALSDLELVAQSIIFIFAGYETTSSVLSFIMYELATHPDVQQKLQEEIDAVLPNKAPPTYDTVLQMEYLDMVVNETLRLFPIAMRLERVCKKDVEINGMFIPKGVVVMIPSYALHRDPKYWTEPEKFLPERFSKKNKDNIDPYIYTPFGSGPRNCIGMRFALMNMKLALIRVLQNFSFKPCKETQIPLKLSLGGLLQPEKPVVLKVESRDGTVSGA
CYP2D6, sequence (P10635 whole entry, canonical isoform): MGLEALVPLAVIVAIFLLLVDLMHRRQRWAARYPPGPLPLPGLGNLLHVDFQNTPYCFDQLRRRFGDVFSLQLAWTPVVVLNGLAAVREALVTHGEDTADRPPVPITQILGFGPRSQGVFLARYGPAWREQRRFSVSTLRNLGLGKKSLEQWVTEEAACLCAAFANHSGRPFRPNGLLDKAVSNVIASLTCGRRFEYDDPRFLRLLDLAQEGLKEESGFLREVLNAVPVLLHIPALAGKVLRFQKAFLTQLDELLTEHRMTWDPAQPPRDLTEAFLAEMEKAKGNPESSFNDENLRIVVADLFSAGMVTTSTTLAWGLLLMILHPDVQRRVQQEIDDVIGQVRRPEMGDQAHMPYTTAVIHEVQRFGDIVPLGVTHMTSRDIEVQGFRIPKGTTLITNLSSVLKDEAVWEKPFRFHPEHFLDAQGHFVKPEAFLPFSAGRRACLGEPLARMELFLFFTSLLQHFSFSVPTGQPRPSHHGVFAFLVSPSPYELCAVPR

As for `CCCCCCCCCCCCCSCCCCCCOP(=O)(O)CO[C@H](C)Cn1cnc2c(N)ncnc21` [MD-1-219, Ammonium 6-(tridecylthio)hexyl (R)-(((1-(6-amino-9H-purin-9-yl)propan-2-yl)oxy)methyl) phosphonate], in series [1], the half-life at 3 µM was found to be 1.1 h.
Consider `N.[2H]C([2H])([2H])CCCCCCCCCCCCCCCOP(=O)(O)CO[C@H](C)Cn1cnc2c(N)ncnc21` [EJM-8-036, Ammonium hexadecyl-16,16,16-d3 (R)-(((1-(6-amino-9H-purin-9-yl)propan-2-yl)oxy)methyl)phosphonate], for which the half-maximal inhibitory concentration (IC50) was 20.6 µM on CYP2D6 and 87.4 µM at CYP3A4. Besides, the half-life at 3 µM in series [1] amounted to 0.35 h.
Take `CCCCCCCCCCCCCCCCCCCCSCCCOP(=O)(O)CO[C@H](C)Cn1cnc2c(N)ncnc21.N` [MD-1-186, Ammonium 3-(icosylthio)propyl (R)-(((1-(6-amino-9H-purin-9-yl)propan-2-yl)oxy)methyl)phosphonate]: the half-life at 3 µM in series [1] is over 2 h.
Take “Ammonium 3-((14-trimethylsilyl)tetradec-13-yn-1-yl)propyl(R)-(((1-(6-amino-9H-purin-9-yl)propan-2-yl)oxy)methyl)phosphonate [NP-PD-130]”: the IC50 at CYP2D6 (setting [2]) was 21.7 µM; at CYP3A4 (setting [3]) it was over 20 µM. The “HLM t1/2” value in series [1] (3 μM test compound) was over 2 h.
Turning to `C[C@H](Cn1cnc2c(N)ncnc21)OCP(=O)(O)OCCCSCCCCCCCCCCCCC#C[Si](C)(C)C.N` [MD-1-187, Ammonium 3-((14-(trimethylsilyl)tetradec-13-yn-1-yl)thio)propyl (R)-(((1-(6-amino-9H-purin-9-yl)propan-2-yl)oxy)methyl)phosphonate], the 50% inhibitory concentration (IC50) on CYP2D6 (setting [2]) and on CYP3A4 (setting [3]) was over 20 µM each time. Besides, in series [1], the half-life at 3 µM was over 2 h.
With `N.[2H]C([2H])([2H])C([2H])([2H])CCCCCCCCCCCCCOP(=O)(O)CO[C@H](C)Cn1cnc2c(N)ncnc21` [EJM-8-030, Ammonium pentadecyl-14,14,15,15,15-d5 (R)-(((1-(6-amino-9H-purin-9-yl)propan-2-yl)oxy)methyl)phosphonate], the IC50 on CYP2D6 was found to be 38.3 µM; at CYP3A4, 52.2 µM. In addition, the half-life at 3 µM in series [1] was 0.333 h.
For `CCCCCCCCCCCCCCCCCCSCCCOP(=O)(O)CO[C@H](C)Cn1cnc2c(N)ncnc21` [MD-1-185, Ammonium 3-(octadecylthio)propyl (R)-(((1-(6-amino-9H-purin-9-yl)propan-2-yl)oxy)methyl) phosphonate], the half-life at 3 µM in series [1] was over 2 h.
In the case of `C#CCCCCCCCCCCCCCCCCSCCCOP(=O)(O)CO[C@H](C)Cn1cnc2c(N)ncnc21.N` [BI-1-057, Ammonium 3-(octadec-17-yn-1-ylthio)propyl (R)-(((1-(6-amino-9H-purin-9-yl)propan-2-yl)oxy)methyl)phosphonate], the IC50 at CYP2D6 (setting [2]) came out at 20.2 µM; on CYP3A4 (setting [3]) it was 37 µM. Moreover, the half-life at 3 µM in series [1] is over 2 h.
As for `CCCCCCCCCCCCCCCOCCCCOP(=O)(O)COC(C)Cn1cnc2c(N)ncnc21.N` (racemic) [NP-PD-150, Ammonium 4-pentadecoxybutoxy-[[rac-(1R)-2-(6-aminopurin-9-yl)-1-methyl-ethoxy]methyl]phosphinate], the half-life at 3 µM in series [1] came to 0.8 h.
For the compound `C[C@H](Cn1cnc2c(N)ncnc21)OCP(=O)(O)OCCCSCCCCCCCCCCCCc1ccccc1.N` [MD-1-184, Ammonium 3-((12-phenyldodecyl)thio)propyl (R)-(((1-(6-amino-9H-purin-9-yl)propan-2-yl)oxy)methyl)phosphonate], on CYP2D6 (setting [2]), the 50% inhibitory concentration (IC50) is over 20 µM. Also, the half-life at 3 µM in series [1] was 1.15 h.
`CCCCCCCCCCSCCCCCCCCCOP(=O)(O)CO[C@H](C)Cn1cnc2c(N)ncnc21.N` [MD-1-122, Ammonium 9-(decylthio)nonyl (R)-(((1-(6-amino-9H-purin-9-yl)propan-2-yl)oxy)methyl)phosphonate]: the half-life at 3 µM in series [1] worked out at 0.217 h.
The same measure, in the same setting: the result for `CCCCCCCCCCCCCCCCCOCCOP(=O)(O)COC(C)Cn1cnc2c(N)ncnc21.N` (racemic) [NP-PD-157, Ammonium 2-heptadecoxyethoxy-[[rac-(1R)-2-(6-aminopurin-9-yl)-1-methyl-ethoxy]methyl]phosphinate] reads 0.583 h; that for `C#CCCCCCCCCCCCCCCSCCCOP(=O)(O)CO[C@H](C)Cn1cnc2c(N)ncnc21` [MD-1-182, Ammonium 3-(hexadec-15-yn-1-ylthio)propyl (R)-(((1-(6-amino-9H-purin-9-yl)propan-2-yl)oxy)methyl) phosphonate], 1.6 h.
For `CCCCSCCCCCCCCCCCCCCCOP(=O)(O)CO[C@H](C)Cn1cnc2c(N)ncnc21` [MD-1-221, Ammonium 15-(butylthio)pentadecyl (R)-(((1-(6-amino-9H-purin-9-yl)propan-2-yl)oxy)methyl) phosphonate], the concentration for half-maximal inhibition (IC50) on CYP2D6 (setting [2]) and on CYP3A4 (setting [3]) was over 20 µM each time.
On to `C[C@H](Cn1cnc2c(N)ncnc21)OCP(=O)(O)OCCCSCCCCCCCCCCC#Cc1ccccc1.N` [MD-1-183, Ammonium 3-((12-phenyldodec-11-yn-1-yl)thio)propyl (R)-(((1-(6-amino-9H-purin-9-yl)propan-2-yl)oxy)methyl)phosphonate], for which, at CYP2D6 (setting [2]), the IC50 was over 20 µM. Further, the half-life at 3 µM in series [1] came out at 1.2 h.
As for `CCCCCCCCCCCCCCOCCCCCOP(=O)(O)COC(C)Cn1cnc2c(N)ncnc21.N` (racemic) [NP-PD-154, Ammonium [rac-(1R)-2-(6-aminopurin-9-yl)-1-methyl-ethoxy]methyl-(5-tetradecoxypentoxy)phosphinate], the half-life at 3 µM in series [1] turned out to be 0.483 h.
